Experimental data reported in PMC4457528, “Identification of Novel Small Molecule Inhibitors of Oncogenic RET Kinase” (PLoS ONE, 2015).
Like-named read-outs stand apart in the source and are kept apart here.

Columns and labels:
Assay in all cases: KinomeScan kinase panel, single concentration 10 µM
Assay type in all cases: binding
KinomeScan kinase panel [1] = biological target: T1, KinomeScan kinase panel (Homo sapiens, UniProt P51817); conditions: 10 µM, read-out: score (%)
T1 construct: purchased DiscoveRx (KinomeScan)
T1 sequence (P51817 1-358): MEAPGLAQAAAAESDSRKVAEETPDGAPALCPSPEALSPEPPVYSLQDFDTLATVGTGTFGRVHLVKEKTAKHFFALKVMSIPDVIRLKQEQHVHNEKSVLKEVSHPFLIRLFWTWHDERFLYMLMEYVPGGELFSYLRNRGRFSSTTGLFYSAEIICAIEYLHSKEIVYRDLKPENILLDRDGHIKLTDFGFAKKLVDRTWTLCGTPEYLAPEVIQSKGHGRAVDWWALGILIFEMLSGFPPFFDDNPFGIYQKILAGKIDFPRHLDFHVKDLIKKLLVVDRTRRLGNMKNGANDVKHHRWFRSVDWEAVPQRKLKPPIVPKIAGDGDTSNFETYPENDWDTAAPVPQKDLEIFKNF

KinomeScan kinase panel [2] = biological target: T2, KinomeScan kinase panel (Homo sapiens, UniProt Q14289); conditions: read-out: score (%)
T2 construct: purchased DiscoveRx (KinomeScan)

KinomeScan kinase panel [3] = biological target: T3, KinomeScan kinase panel (Homo sapiens, UniProt Q9P0L2); conditions: MARK1, 10 µM; read-out: score (%)
T3 construct: purchased DiscoveRx (KinomeScan)
T3 sequence (Q9P0L2 whole entry): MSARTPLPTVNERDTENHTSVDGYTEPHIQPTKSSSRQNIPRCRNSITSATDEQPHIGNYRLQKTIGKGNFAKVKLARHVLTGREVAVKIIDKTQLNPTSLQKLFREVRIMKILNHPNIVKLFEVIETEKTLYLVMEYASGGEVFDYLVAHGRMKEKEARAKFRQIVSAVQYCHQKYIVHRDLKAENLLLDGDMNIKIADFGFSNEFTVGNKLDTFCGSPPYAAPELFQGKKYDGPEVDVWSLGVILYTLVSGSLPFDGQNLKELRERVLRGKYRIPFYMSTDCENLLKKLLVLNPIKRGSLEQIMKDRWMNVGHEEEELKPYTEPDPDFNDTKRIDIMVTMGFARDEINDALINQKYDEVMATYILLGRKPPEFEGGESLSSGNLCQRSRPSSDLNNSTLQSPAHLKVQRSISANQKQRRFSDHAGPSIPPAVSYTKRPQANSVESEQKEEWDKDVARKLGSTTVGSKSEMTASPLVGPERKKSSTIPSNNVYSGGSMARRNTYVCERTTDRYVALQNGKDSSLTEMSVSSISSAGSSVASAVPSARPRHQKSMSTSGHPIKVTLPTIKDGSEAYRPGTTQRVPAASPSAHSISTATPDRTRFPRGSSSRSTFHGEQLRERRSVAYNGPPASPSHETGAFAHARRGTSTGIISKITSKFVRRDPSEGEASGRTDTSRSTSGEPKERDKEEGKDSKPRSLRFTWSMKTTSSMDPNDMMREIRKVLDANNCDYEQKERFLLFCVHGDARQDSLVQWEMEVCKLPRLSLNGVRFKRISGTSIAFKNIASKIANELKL

KinomeScan kinase panel [4] = biological target: T4, KinomeScan kinase panel (Homo sapiens, UniProt P00519, F317I); conditions: 10 µM, read-out: score (%)
T4 construct: purchased DiscoveRx (KinomeScan)

KinomeScan kinase panel [5] = biological target: T5, KinomeScan kinase panel (Homo sapiens, UniProt Q13177); conditions: PAK2, 10 µM; read-out: score (%)
T5 construct: purchased DiscoveRx (KinomeScan)
T5 sequence (Q13177 whole entry): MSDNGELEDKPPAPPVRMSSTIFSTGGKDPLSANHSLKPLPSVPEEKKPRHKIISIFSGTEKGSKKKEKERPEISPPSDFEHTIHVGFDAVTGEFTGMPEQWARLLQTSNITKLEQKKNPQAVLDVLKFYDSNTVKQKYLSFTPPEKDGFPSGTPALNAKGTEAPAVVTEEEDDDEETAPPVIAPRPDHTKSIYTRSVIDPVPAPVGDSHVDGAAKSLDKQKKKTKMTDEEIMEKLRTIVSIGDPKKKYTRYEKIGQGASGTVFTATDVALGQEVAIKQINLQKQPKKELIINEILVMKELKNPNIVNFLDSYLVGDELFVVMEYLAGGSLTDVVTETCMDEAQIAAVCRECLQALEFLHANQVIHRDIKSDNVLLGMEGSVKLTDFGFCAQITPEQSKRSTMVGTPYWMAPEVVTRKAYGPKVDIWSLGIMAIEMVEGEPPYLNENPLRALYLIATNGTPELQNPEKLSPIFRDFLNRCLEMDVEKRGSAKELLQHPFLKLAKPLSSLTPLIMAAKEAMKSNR

KinomeScan kinase panel [6] = biological target: T6, KinomeScan kinase panel (Homo sapiens, UniProt O75676); conditions: 10 µM, read-out: score (%)
T6 construct: purchased DiscoveRx (KinomeScan)

KinomeScan kinase panel [7] = biological target: T7, KinomeScan kinase panel (Homo sapiens, UniProt Q9UKE5); conditions: 10 µM, read-out: score (%)
T7 construct: purchased DiscoveRx (KinomeScan)
T7 sequence (Q9UKE5 whole entry): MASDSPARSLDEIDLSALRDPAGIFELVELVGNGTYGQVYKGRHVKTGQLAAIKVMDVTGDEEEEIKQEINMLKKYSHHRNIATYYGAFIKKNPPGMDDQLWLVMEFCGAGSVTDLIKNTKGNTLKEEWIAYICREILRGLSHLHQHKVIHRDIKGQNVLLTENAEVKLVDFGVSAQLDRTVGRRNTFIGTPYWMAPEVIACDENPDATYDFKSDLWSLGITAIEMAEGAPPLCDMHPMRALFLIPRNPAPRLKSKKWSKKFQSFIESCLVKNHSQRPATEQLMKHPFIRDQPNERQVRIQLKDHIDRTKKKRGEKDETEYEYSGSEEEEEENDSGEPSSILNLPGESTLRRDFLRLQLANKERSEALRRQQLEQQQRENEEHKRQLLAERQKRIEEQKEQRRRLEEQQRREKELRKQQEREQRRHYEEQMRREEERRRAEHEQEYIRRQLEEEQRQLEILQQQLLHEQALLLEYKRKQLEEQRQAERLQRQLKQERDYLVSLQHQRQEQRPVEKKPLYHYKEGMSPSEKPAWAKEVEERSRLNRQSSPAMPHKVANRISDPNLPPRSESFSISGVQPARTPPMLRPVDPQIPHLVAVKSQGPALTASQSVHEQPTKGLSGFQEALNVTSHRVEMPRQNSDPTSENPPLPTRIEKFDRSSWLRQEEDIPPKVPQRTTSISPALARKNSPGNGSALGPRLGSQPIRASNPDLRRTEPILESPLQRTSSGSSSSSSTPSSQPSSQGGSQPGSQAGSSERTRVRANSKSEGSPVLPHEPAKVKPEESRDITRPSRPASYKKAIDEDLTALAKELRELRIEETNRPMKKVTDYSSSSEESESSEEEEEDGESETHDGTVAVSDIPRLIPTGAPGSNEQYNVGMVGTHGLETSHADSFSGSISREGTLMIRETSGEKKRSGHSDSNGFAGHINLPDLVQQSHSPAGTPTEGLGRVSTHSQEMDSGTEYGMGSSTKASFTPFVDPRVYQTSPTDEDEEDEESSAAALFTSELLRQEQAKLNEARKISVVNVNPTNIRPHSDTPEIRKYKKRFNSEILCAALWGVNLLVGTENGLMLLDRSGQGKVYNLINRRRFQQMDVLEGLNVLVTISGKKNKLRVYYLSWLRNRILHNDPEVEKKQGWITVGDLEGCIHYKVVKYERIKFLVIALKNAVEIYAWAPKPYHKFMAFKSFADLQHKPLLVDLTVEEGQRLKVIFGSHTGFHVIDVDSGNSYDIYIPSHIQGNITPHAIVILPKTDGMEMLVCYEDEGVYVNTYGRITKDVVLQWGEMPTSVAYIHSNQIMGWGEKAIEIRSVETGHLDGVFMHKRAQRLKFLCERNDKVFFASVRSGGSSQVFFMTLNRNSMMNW

KinomeScan kinase panel [8] = biological target: T8, KinomeScan kinase panel (Homo sapiens, UniProt Q00537); conditions: PCTK2, 10 µM; read-out: score (%)
T8 construct: purchased DiscoveRx (KinomeScan)
T8 sequence (Q00537 whole entry): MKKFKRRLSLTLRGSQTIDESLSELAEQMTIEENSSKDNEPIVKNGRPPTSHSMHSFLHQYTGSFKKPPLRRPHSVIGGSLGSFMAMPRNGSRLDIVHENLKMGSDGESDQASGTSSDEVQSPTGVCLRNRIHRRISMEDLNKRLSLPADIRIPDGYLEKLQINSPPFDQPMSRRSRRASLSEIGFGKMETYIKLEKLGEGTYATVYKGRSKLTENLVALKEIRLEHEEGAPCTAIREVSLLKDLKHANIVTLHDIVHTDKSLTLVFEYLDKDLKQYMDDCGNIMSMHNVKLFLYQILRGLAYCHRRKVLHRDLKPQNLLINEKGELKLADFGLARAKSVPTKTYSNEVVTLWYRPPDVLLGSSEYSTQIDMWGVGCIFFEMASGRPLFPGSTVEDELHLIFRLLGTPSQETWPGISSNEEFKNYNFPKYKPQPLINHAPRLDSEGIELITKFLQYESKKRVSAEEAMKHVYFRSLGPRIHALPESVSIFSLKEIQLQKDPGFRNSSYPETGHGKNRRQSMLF

KinomeScan kinase panel [9] = biological target: T9, KinomeScan kinase panel (Homo sapiens, UniProt P42680); conditions: 10 µM, read-out: score (%)
T9 construct: purchased DiscoveRx (KinomeScan)
T9 sequence (P42680 1-631): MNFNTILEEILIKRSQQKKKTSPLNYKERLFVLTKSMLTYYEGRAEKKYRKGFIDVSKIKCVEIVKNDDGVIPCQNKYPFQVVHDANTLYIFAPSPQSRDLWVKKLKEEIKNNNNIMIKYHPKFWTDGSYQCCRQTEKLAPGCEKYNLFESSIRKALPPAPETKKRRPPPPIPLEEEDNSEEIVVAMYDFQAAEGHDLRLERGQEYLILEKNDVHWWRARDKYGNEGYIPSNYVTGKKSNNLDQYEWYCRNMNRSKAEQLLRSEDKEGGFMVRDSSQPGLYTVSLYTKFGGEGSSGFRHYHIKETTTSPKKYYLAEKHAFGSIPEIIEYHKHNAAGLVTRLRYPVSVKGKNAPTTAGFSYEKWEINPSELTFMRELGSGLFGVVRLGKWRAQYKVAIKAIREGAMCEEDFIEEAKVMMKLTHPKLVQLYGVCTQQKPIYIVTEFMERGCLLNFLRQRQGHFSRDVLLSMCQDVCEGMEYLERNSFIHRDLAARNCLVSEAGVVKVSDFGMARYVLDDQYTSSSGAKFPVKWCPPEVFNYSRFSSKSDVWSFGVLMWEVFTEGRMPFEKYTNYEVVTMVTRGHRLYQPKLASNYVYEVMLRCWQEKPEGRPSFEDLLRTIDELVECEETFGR

KinomeScan kinase panel [10] = biological target: T10, KinomeScan kinase panel (Homo sapiens, UniProt P09769); conditions: FGR, 10 µM; read-out: score (%)
T10 construct: purchased DiscoveRx (KinomeScan)
T10 sequence (P09769 whole entry): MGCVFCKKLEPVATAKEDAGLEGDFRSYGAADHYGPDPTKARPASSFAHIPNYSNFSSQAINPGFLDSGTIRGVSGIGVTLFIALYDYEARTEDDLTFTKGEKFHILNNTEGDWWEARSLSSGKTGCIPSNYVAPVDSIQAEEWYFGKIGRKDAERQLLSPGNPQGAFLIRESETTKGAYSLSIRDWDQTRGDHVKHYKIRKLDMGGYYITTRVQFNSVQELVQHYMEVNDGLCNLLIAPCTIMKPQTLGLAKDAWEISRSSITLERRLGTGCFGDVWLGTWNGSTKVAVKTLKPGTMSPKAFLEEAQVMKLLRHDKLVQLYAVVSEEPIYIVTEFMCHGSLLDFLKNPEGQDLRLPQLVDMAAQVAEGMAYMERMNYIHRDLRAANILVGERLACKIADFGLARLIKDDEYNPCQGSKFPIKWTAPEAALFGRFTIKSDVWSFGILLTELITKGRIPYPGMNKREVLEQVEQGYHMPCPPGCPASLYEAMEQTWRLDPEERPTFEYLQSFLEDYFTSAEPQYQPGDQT

KinomeScan kinase panel [11] = biological target: T11, KinomeScan kinase panel (Homo sapiens, UniProt P42336); conditions: PIK3CA, 10 µM; read-out: score (%)
T11 construct: purchased DiscoveRx (KinomeScan)

KinomeScan kinase panel [12] = biological target: T12, KinomeScan kinase panel (Homo sapiens, UniProt Q9UQB9); conditions: AURKC, 10 µM; read-out: score (%)
T12 construct: purchased DiscoveRx (KinomeScan)
T12 sequence (Q9UQB9 1-309): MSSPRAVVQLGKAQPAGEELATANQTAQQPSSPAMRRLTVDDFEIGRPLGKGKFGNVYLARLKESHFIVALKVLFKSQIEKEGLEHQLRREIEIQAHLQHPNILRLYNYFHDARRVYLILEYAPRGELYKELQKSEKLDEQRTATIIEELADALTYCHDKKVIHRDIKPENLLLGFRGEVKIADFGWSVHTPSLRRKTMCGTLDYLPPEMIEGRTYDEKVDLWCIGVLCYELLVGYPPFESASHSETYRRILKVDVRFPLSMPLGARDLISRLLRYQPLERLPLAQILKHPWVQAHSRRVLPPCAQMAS

KinomeScan kinase panel [13] = biological target: T13, KinomeScan kinase panel (Homo sapiens, UniProt P10721, V559D); conditions: KIT(V559D), 10 µM; read-out: score (%)
T13 construct: purchased DiscoveRx (KinomeScan)
T13 sequence (P10721 26-976 V559D): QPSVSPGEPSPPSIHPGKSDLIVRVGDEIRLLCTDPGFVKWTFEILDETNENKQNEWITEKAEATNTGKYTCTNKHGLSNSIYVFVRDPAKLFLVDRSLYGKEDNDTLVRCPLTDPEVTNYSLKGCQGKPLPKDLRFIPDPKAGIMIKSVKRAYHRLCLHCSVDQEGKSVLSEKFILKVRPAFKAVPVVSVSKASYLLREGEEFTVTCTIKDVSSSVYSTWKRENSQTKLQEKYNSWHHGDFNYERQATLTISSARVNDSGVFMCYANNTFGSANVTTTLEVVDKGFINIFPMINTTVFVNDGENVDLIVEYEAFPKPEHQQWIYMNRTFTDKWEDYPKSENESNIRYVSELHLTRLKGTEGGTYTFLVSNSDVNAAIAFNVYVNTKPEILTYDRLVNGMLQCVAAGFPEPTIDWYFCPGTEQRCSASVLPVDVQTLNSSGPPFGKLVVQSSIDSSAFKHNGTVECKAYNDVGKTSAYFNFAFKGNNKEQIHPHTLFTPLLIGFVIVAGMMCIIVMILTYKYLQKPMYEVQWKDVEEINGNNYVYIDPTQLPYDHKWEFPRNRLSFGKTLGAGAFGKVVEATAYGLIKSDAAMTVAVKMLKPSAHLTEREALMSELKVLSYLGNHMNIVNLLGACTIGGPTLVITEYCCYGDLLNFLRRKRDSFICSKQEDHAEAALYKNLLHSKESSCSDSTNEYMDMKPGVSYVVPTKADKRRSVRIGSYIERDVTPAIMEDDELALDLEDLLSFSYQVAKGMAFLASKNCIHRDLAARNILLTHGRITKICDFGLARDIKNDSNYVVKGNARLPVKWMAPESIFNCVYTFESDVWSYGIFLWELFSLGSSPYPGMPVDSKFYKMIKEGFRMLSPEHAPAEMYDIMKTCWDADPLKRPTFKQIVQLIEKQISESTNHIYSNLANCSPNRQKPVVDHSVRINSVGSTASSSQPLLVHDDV

[14] = kinase RPS6KA4(Kin.Dom.1-N-terminal)
[15] = kinase RPS6KA4(Kin.Dom.2-C-terminal)

Row | Structure (SMILES) | remaining binding at 10 µM (KinomeScan kinase panel [3]) [%] | remaining binding at 10 µM (KinomeScan kinase panel [5]) [%] | remaining binding at 10 µM (KinomeScan kinase panel [6]; [14]) [%] | remaining binding at 10 µM (KinomeScan kinase panel [6]; [15]) [%] | remaining binding at 10 µM (KinomeScan kinase panel [7]; kinase TNIK) [%] | remaining binding at 10 µM (KinomeScan kinase panel [8]) [%] | remaining binding at 10 µM (KinomeScan kinase panel [9]; kinase TEC) [%] | remaining binding at 10 µM (KinomeScan kinase panel [10]) [%] | remaining binding at 10 µM (KinomeScan kinase panel [11]) [%] | remaining binding at 10 µM (KinomeScan kinase panel [12]) [%] | remaining binding at 10 µM (KinomeScan kinase panel [13]) [%] | remaining binding at 10 µM (KinomeScan kinase panel [1]; PRKX) [%] | remaining binding at 10 µM (KinomeScan kinase panel [4]; ABL1(F317I)) [%] | further results
1 | CCN1CCN(Cc2ccc(NC(=O)c3ccc(C)c(C#Cc4cccnc4)c3)cc2C(F)(F)F)CC1 [XMD15-44] | > 30 | 84 | 30 | 99 | 1.8 | 8.2 | 3.7 | 0 | 100 | 13 | 0 | – | – | remaining binding at 10 µM (KinomeScan kinase panel [1]; kinase PRKX): 3.6%; remaining binding at 10 µM (KinomeScan kinase panel [2]; kinase PYK2, 10 µM): 0.4%; remaining binding at 10 µM (KinomeScan kinase panel [4]; ABL1(F317I)-nonphosphorylated): 8.8%; remaining binding at 10 µM (KinomeScan kinase panel [4]; ABL1(F317I)-phosphorylated): 4%
2 | CCN1CCN(Cc2ccc(NC(=O)c3ccc(C)c(/C=C/c4cnc5[nH]ccc5c4Cl)c3)cc2C(F)(F)F)CC1 [HG-6-63-01, (E)-3-(2-(4-chloro-1H-pyrrolo[2,3-b]pyridin-5-yl)vinyl)-N-(4-((4-ethylpiperazin-1-yl)methyl)-3-(trifluoromethyl)phenyl)-4-methylbenzamide] | > 30 | > 30 | – | – | – | > 30 | – | 0.35 | > 30 | 0.65 | 0 | > 30 | 0.05 | remaining binding at 10 µM (KinomeScan kinase panel [2]; PTK2B, 10 µM): 5.5%; remaining binding at 10 µM (KinomeScan kinase panel [6]; RPS6KA4(Kin.Dom.1)): > 30%; remaining binding at 10 µM (KinomeScan kinase panel [6]; RPS6KA4(Kin.Dom.2)): > 30%; remaining binding at 10 µM (KinomeScan kinase panel [7]; TNIK): 13%; remaining binding at 10 µM (KinomeScan kinase panel [9]; TEC): 1.2%
3 | CCN1CCN(Cc2ccc(NC(=O)c3ccc(C)c(NC(=O)c4cncc(-c5cccs5)c4)c3)cc2C(F)(F)F)CC1 [ALW-II-41-27] | > 30 | > 30 | 6.3 | > 30 | 11 | > 30 | 1.7 | 0.2 | > 30 | > 30 | 0.1 | > 30 | 0.2 | remaining binding at 10 µM (KinomeScan kinase panel [2]; PYK2, 10 µM): 2.4%
